{"source": "patent US6737383B1", "about": "“Herbicidal oxadiazolidines” (priority 1999, dated 2004)", "key": {"cocklebur": {"system": "cocklebur", "test": "Test B pre/postemergence cocklebur", "assay_type": "in vivo, Xanthium strumarium", "outline": "(§1)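 Herbicidal effect was estimated by eye on a ten-point control scale after plants spent twelve to sixteen days in a greenhouse following soil or foliar treatment. Foliar sprays targeted plants at one to four leaves; all doses were formulated in a non-phytotoxic solvent with surfactant.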"}, "rape": {"system": "rape", "test": "Test B pre/postemergence rape", "assay_type": "in vivo, Brassica napus", "details": "Preemergence", "outline": "as §1"}, "crabgrass": {"system": "crabgrass", "test": "Test B pre/postemergence crabgrass", "assay_type": "in vivo, Digitaria sanguinalis", "outline": "as §1"}, "velvetleaf": {"system": "velvetleaf", "test": "Test B pre/postemergence velvetleaf", "assay_type": "in vivo, Abutilon theophrasti", "outline": "as §1"}, "sugar beet": {"system": "sugar beet", "test": "Test B pre/postemergence sugar beet", "assay_type": "in vivo, Beta vulgaris", "outline": "as §1"}, "giant foxtail": {"system": "giant foxtail", "test": "Test B pre/postemergence giant foxtail", "assay_type": "in vivo, Setaria faberii", "outline": "as §1"}, "blackgrass": {"system": "blackgrass", "test": "Test B pre/postemergence blackgrass", "assay_type": "in vivo, Alopecurus myosuroides", "outline": "as §1"}, "pigweed": {"system": "pigweed", "test": "Test B pre/postemergence pigweed", "assay_type": "in vivo, Amaranthus retroflexus", "outline": "as §1"}, "morningglory": {"system": "morningglory", "test": "Test B pre/postemergence morningglory", "assay_type": "in vivo, Ipomoea hederacea", "outline": "as §1"}, "bedstraw": {"system": "bedstraw", "test": "Test B pre/postemergence bedstraw", "assay_type": "in vivo, Galium aparine", "outline": "as §1"}, "surinam grass": {"system": "surinam grass", "test": "Test B pre/postemergence surinam grass", "assay_type": "in vivo, Brachiaria decumbens", "details": "Postemergence", "outline": "as §1"}, "wheat": {"system": "wheat", "test": "Test B pre/postemergence wheat", "assay_type": "in vivo, Triticum aestivum", "outline": "as §1"}, "purple nutsedge": {"system": "purple nutsedge", "test": "Test B pre/postemergence purple nutsedge", "assay_type": "in vivo, Cyperus rotundus", "outline": "as §1"}, "soybean": {"system": "soybean", "test": "Test B pre/postemergence soybean", "assay_type": "in vivo, Glycine max", "outline": "as §1"}, "corn": {"system": "corn", "test": "Test B pre/postemergence corn", "assay_type": "in vivo, Zea mays", "outline": "as §1"}, "wild oat": {"system": "wild oat", "test": "Test B pre/postemergence wild oat", "assay_type": "in vivo, Avena fatua", "outline": "as §1"}, "[1]": {"details": "Postemergence, Rate 62 g/ha, scale 0 to 10, 0 is no effect, 10 is complete control"}, "[2]": {"details": "Postemergence, Rate 125 g/ha, scale of 0 to 10 where 0 is no effect and 10 is complete control"}, "[3]": {"details": "Postemergence, Rate 500 g/ha, scale 0 (no effect) to 10 (complete control)"}, "[4]": {"details": "Preemergence, Rate 250 g/ha, scale 0 (no effect) to 10 (complete control)"}, "[5]": {"details": "Rate 62 g/ha, Preemergence, scale 0 to 10"}, "[6]": {"details": "Rate 125 g/ha, Preemergence, scale 0 to 10 (0 no effect, 10 complete control)"}, "[7]": {"details": "Rate 250 g/ha, Postemergence, scale 0 to 10, 0 is no effect, 10 is complete control"}, "[8]": {"details": "Rate 500 g/ha, Preemergence, scale 0 to 10 (0 no effect, 10 complete control)"}}, "data": [{"smiles": "C#CCCn1c(=O)on(C(=O)N(c2ccc(F)cc2)C(C)C)c1=O", "note": "[Compound 767]", "values": [{"measurement": "Plant response rating, Cocklebur", "setting": "cocklebur; [1]", "result": 2}, {"measurement": "Cocklebur plant response rating", "setting": "cocklebur; [2]", "result": 2}, {"measurement": "Cocklebur plant response rating", "setting": "cocklebur; [3]", "result": 2}, {"measurement": "Cocklebur plant response rating", "setting": "cocklebur; [4]", "result": 0}, {"measurement": "Cocklebur plant response rating", "setting": "cocklebur; [5]", "result": 0}, {"measurement": "Cocklebur plant response rating", "setting": "cocklebur; [6]", "result": 0}, {"measurement": "Cocklebur plant response rating", "setting": "cocklebur; [7]", "result": 2}, {"measurement": "Cocklebur plant response rating", "setting": "cocklebur; [8]", "result": 0}, {"measurement": "Rape plant response rating", "setting": "rape; Rate 62 g/ha, scale 0 to 10", "result": 4}, {"measurement": "Rape plant response rating", "setting": "rape; Rate 125 g/ha, scale 0 to 10 (0 no effect, 10 complete control)", "result": 6}, {"measurement": "Rape plant response rating", "setting": "rape; Rate 500 g/ha, scale 0 to 10 (0 no effect, 10 complete control)", "result": 10}, {"measurement": "Plant response rating, Crabgrass", "setting": "crabgrass; [1]", "result": 8}, {"measurement": "Crabgrass plant response rating", "setting": "crabgrass; [2]", "result": 8}, {"measurement": "Crabgrass plant response rating", "setting": "crabgrass; [3]", "result": 9}, {"measurement": "Crabgrass plant response rating", "setting": "crabgrass; [4]", "result": 10}, {"measurement": "Crabgrass plant response rating", "setting": "crabgrass; [5]", "result": 10}, {"measurement": "Crabgrass plant response rating", "setting": "crabgrass; [6]", "result": 10}, {"measurement": "Crabgrass plant response rating", "setting": "crabgrass; [7]", "result": 9}, {"measurement": "Crabgrass plant response rating", "setting": "crabgrass; [8]", "result": 10}, {"measurement": "Plant response rating, Velvetleaf", "setting": "velvetleaf; [1]", "result": 2}, {"measurement": "Velvetleaf plant response rating", "setting": "velvetleaf; [3]", "result": 3}, {"measurement": "Velvetleaf plant response rating", "setting": "velvetleaf; [5]", "result": 0}, {"measurement": "Velvetleaf plant response rating", "setting": "velvetleaf; [6]", "result": 0}, {"measurement": "Velvetleaf plant response rating", "setting": "velvetleaf; [7]", "result": 2}, {"measurement": "Velvetleaf plant response rating", "setting": "velvetleaf; [8]", "result": 2}, {"measurement": "Plant response rating, Sugarbeets", "setting": "sugar beet; [1]", "result": 3}, {"measurement": "Sugarbeets plant response rating", "setting": "sugar beet; [3]", "result": 7}, {"measurement": "Sugarbeets plant response rating", "setting": "sugar beet; [5]", "result": 2}, {"measurement": "Sugarbeets plant response rating", "setting": "sugar beet; [6]", "result": 6}, {"measurement": "Sugarbeets plant response rating", "setting": "sugar beet; [7]", "result": 5}, {"measurement": "Sugarbeets plant response rating", "setting": "sugar beet; [8]", "result": 9}, {"measurement": "Plant response rating, Giant foxtail", "setting": "giant foxtail; [1]", "result": 8}, {"measurement": "Giant foxtail plant response rating", "setting": "giant foxtail; [2]", "result": 8}, {"measurement": "Giant foxtail plant response rating", "setting": "giant foxtail; [3]", "result": 9}, {"measurement": "Giant foxtail plant response rating", "setting": "giant foxtail; [4]", "result": 10}, {"measurement": "Giant foxtail plant response rating", "setting": "giant foxtail; [5]", "result": 10}, {"measurement": "Giant foxtail plant response rating", "setting": "giant foxtail; [6]", "result": 10}, {"measurement": "Giant foxtail plant response rating", "setting": "giant foxtail; [7]", "result": 9}, {"measurement": "Giant foxtail plant response rating", "setting": "giant foxtail; [8]", "result": 10}, {"measurement": "Plant response rating, Blackgrass", "setting": "blackgrass; [1]", "result": 9}, {"measurement": "Blackgrass plant response rating", "setting": "blackgrass; [2]", "result": 9}, {"measurement": "Blackgrass plant response rating", "setting": "blackgrass; [3]", "result": 9}, {"measurement": "Blackgrass plant response rating", "setting": "blackgrass; [4]", "result": 10}, {"measurement": "Blackgrass plant response rating", "setting": "blackgrass; [5]", "result": 10}, {"measurement": "Blackgrass plant response rating", "setting": "blackgrass; [6]", "result": 10}, {"measurement": "Blackgrass plant response rating", "setting": "blackgrass; [7]", "result": 9}, {"measurement": "Blackgrass plant response rating", "setting": "blackgrass; [8]", "result": 10}, {"measurement": "Plant response rating, Redroot pigweed", "setting": "pigweed; [1]", "result": 6}, {"measurement": "Redroot pigweed plant response rating", "setting": "pigweed; [2]", "result": 9}, {"measurement": "Redroot pigweed plant response rating", "setting": "pigweed; [3]", "result": 9}, {"measurement": "Redroot pigweed plant response rating", "setting": "pigweed; [5]", "result": 10}, {"measurement": "Redroot pigweed plant response rating", "setting": "pigweed; [6]", "result": 10}, {"measurement": "Redroot pigweed plant response rating", "setting": "pigweed; [7]", "result": 9}, {"measurement": "Redroot pigweed plant response rating", "setting": "pigweed; [8]", "result": 10}, {"measurement": "Plant response rating, Morningglory", "setting": "morningglory; [1]", "result": 5}, {"measurement": "Morningglory plant response rating", "setting": "morningglory; [2]", "result": 5}, {"measurement": "Morningglory plant response rating", "setting": "morningglory; [3]", "result": 7}, {"measurement": "Morningglory plant response rating", "setting": "morningglory; [5]", "result": 0}, {"measurement": "Morningglory plant response rating", "setting": "morningglory; [6]", "result": 0}, {"measurement": "Morningglory plant response rating", "setting": "morningglory; [7]", "result": 5}, {"measurement": "Morningglory plant response rating", "setting": "morningglory; [8]", "result": 0}, {"measurement": "Plant response rating, Bedstraw", "setting": "bedstraw; [1]", "result": 7}, {"measurement": "Bedstraw plant response rating", "setting": "bedstraw; [2]", "result": 7}, {"measurement": "Bedstraw plant response rating", "setting": "bedstraw; [3]", "result": 9}, {"measurement": "Bedstraw plant response rating", "setting": "bedstraw; [6]", "result": 0}, {"measurement": "Bedstraw plant response rating", "setting": "bedstraw; [7]", "result": 7}, {"measurement": "Bedstraw plant response rating", "setting": "bedstraw; [8]", "result": 8}, {"measurement": "Plant response rating, B. signalgrass", "setting": "surinam grass; Rate 62 g/ha, scale 0 to 10, 0 is no effect, 10 is complete control", "result": 2}, {"measurement": "B. signalgrass plant response rating", "setting": "surinam grass; Rate 125 g/ha, scale of 0 to 10 where 0 is no effect and 10 is complete control", "result": 2}, {"measurement": "B. signalgrass plant response rating", "setting": "surinam grass; Rate 250 g/ha, scale 0 to 10, 0 is no effect, 10 is complete control", "result": 6}, {"measurement": "B. signalgrass plant response rating", "setting": "surinam grass; Rate 500 g/ha, scale 0 to 10, 0 is no effect, 10 is complete control", "result": 7}, {"measurement": "Plant response rating, Wheat", "setting": "wheat; [1]", "result": 0}, {"measurement": "Wheat plant response rating", "setting": "wheat; [3]", "result": 2}, {"measurement": "Wheat plant response rating", "setting": "wheat; [5]", "result": 0}, {"measurement": "Wheat plant response rating", "setting": "wheat; [6]", "result": 5}, {"measurement": "Wheat plant response rating", "setting": "wheat; [7]", "result": 2}, {"measurement": "Wheat plant response rating", "setting": "wheat; [8]", "result": 5}, {"measurement": "Plant response rating, Nutsedge", "setting": "purple nutsedge; [1]", "result": 0}, {"measurement": "Nutsedge plant response rating", "setting": "purple nutsedge; [2]", "result": 0}, {"measurement": "Nutsedge plant response rating", "setting": "purple nutsedge; [3]", "result": 7}, {"measurement": "Nutsedge plant response rating", "setting": "purple nutsedge; [5]", "result": 0}, {"measurement": "Nutsedge plant response rating", "setting": "purple nutsedge; [6]", "result": 0}, {"measurement": "Nutsedge plant response rating", "setting": "purple nutsedge; [7]", "result": 0}, {"measurement": "Nutsedge plant response rating", "setting": "purple nutsedge; [8]", "result": 0}, {"measurement": "Plant response rating, Soybean", "setting": "soybean; [1]", "result": 1}, {"measurement": "Soybean plant response rating", "setting": "soybean; [3]", "result": 7}, {"measurement": "Soybean plant response rating", "setting": "soybean; [5]", "result": 0}, {"measurement": "Soybean plant response rating", "setting": "soybean; [6]", "result": 0}, {"measurement": "Soybean plant response rating", "setting": "soybean; [7]", "result": 4}, {"measurement": "Soybean plant response rating", "setting": "soybean; [8]", "result": 2}, {"measurement": "Plant response rating, Corn", "setting": "corn; [1]", "result": 0}, {"measurement": "Corn plant response rating", "setting": "corn; [2]", "result": 0}, {"measurement": "Corn plant response rating", "setting": "corn; [3]", "result": 2}, {"measurement": "Corn plant response rating", "setting": "corn; [4]", "result": 0}, {"measurement": "Corn plant response rating", "setting": "corn; [5]", "result": 0}, {"measurement": "Corn plant response rating", "setting": "corn; [6]", "result": 0}, {"measurement": "Corn plant response rating", "setting": "corn; [7]", "result": 0}, {"measurement": "Corn plant response rating", "setting": "corn; [8]", "result": 5}, {"measurement": "Plant response rating, Wild oats", "setting": "wild oat; [1]", "result": 0}, {"measurement": "Wild oats plant response rating", "setting": "wild oat; [3]", "result": 3}, {"measurement": "Wild oats plant response rating", "setting": "wild oat; [5]", "result": 9}, {"measurement": "Wild oats plant response rating", "setting": "wild oat; [7]", "result": 0}, {"measurement": "Wild oats plant response rating", "setting": "wild oat; [8]", "result": 9}]}]}
